Assay [1] concerns MYB mRNA. The assay can be described thus: Splicing RT-qPCR assay, MYB canonical (CJ) and alternative (AJ) junction mRNA. The assay is classed as cell-based, human. Conditions: Homo sapiens, A673 or K562 cells, 24 hours compound treatment, RT-qPCR; for AC50: read-out: MYB AJ (AC50, increase in alternative junction mRNA); for IC50: read-out: MYB CJ (IC50, decrease in canonical junction mRNA). In a few lines: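 Read-out is the abundance of canonical-junction versus new alternative-exon-junction mRNA, determined by real-time qPCR after cDNA synthesis and normalized to a housekeeping gene. It is measured in A673 or K562 cells exposed to compounds for 24 h, top dose 10 uM.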
A general note: Quantitative PCR measures a nucleic acid by following its amplification.

For assay [2], the system named is K562 cells. The assay can be described thus: Cell Titer Glo 2.0 cell viability assay, K562. The format is cell-based. Conditions: Homo sapiens, 72 hours incubation. For orientation: In ATP-based viability assays light output follows the ATP content of the culture.
In assay [3] the test system is HTT. The assay can be described thus: Protein abundance, HiBit-assay system (Promega), HTT. The format is cell-based. Conditions: Table 6; HiBiT-modified K562 cells, 24 hours. The source says: In some embodiments, a compound of Formula (I) or (II) or a pharmaceutically acceptable salt thereof, e.g., as described herein, modulates the expression of a target protein (e.g., HTT or MYB) in a reference cell or sample. In an embodiment, a compound of Formula (I) or (II) or a pharmaceutically acceptable salt thereof, e.g., as described herein, increases the expression of a target protein (e.g., HTT or MYB) in a reference cell or sample. In an embodiment, a compound of Formula (I) or (II) or a pharmaceutically acceptable salt thereof, e.g., as described herein, decreases the expression of a target protein (e.g., HTT or MYB) in a reference cell or sample. The effect of an exemplary compound of Formula (I) or (II) on protein abundance may be measured using a standard assay for measuring protein abundance, such as the HiBit-assay system (Promega). In this assay, percent response for each respective cell line may be as calculated at each compound concentration as follows: % response=100*(S−PC)/(NC−PC). For the normalized response at each concentration, a four-parameter logistical regression may be fit to the data and the response may be interpolated at the 50% value to determine a concentration for protein abundance at 50% (IC50) an untreated control. In an embodiment, a compound of Formula (I) or (II) or a pharmaceutically acceptable salt thereof, e.g., as described herein, has a protein abundance response less than 100 nM. In an embodiment, a compound of Formula (I) or (II) or a pharmaceutically acceptable salt thereof, e.g., as described herein, has a protein abundance response between 100-1000 nM. In an embodiment, a compound of Formula (I) or (II) or a pharmaceutically acceptable salt thereof, e.g., as described herein, has a protein abundance response greater than 1000 nM. In an embodiment, a compound of Formula (I) or (II) or a pharmaceutically acceptable salt thereof, e.g., as described herein, has a protein abundance response greater than 10 uM. In an embodiment, a compound of Formula (I) or (II) or a pharmaceutically acceptable salt thereof, e.g., as described herein, modulates the protein abundance of a target protein by about 1%, 5%, 10%, 15%, 20%, 25%, 30%, 35%, 40%, 45%, 50%, 55%, 60%, 65%, 70%, 75%, 80%, 85%, 90%, 95%, 99% or more, e.g., compared with a reference compound.
In general terms: The HiBiT peptide binds its large partner to form an active luciferase.

Results on 9 compounds are retold here after patent US20250154169A1, “COMPOUNDS AND METHODS FOR MODULATING SPLICING” (REMIX THERAPEUTICS INC., priority 2021, published 2025).

Counter-ions that a name gives are not always drawn. Like-named read-outs stand apart in the source and are kept apart here.

What is called AC50 is the midpoint of the concentration-response curve, whichever way the signal moves. The IC50 is the concentration needed to halve the response being measured. A word on the GI50: it is the concentration that inhibits growth by half. A lower GI50 goes with more potent growth inhibition.

Take `CCn1cc2c(N3CCC(N[C@H]4C[C@H](O)C4)CC3)ccc(C(=O)Nc3cc(F)c4nc(C)cn4c3)c2n1` [Compound 560, 2-ethyl-N-{8-fluoro-2-methylimidazo[1,2-a]pyridin-6-yl}-4-(4-{[(1r,3r)-3-hydroxycyclobutyl]amino}piperidin-1-yl) indazole-7-carboxamide]: the AC50 in assay [1] (24 h) was 100 to 1000 nM. In addition, the concentration for half-maximal inhibition (IC50) in assay [1] (24 h) lay in the range of 100 to 1000 nM; in assay [3], 1000 to 10000 nM. The compound further returned a GI50 in assay [2] of less than 100 nM.
Take `Cc1cn2cc(NC(=O)c3ccc(N4CC[C@@H](N5CCNCC5)C4)c4cn(C)nc34)cc(F)c2n1` [Compound 562, N-{8-fluoro-2-methylimidazo[1,2-a]pyridin-6-yl}-2-methyl-4-[(3R)-3-(piperazin-1-yl)pyrrolidin-1-yl]indazole-7-carboxamide hydrochloride]: the concentration at half-maximal activity (AC50) in assay [1] (24 h) is 1000 to 10000 nM. Moreover, the concentration for half-maximal inhibition (IC50) is 1000 to 10000 nM in assay [1] (24 h) and greater than 10000 nM in assay [3]. Also, the GI50 in assay [2] was 1000 to 10000 nM.
As for `Cc1cn2cc(NC(=O)c3ccc(N4CC5NC5C4)c4cn(C)nc34)cc(F)c2n1` (stereo not drawn) [Compound 563, 4-{3,6-diazabicyclo[3.1.0]hexan-3-yl}-N-{8-fluoro-2-methylimidazo[1,2-a]pyridin-6-yl}-2-methylindazole-7-carboxamide], in assay [1], the concentration at half-maximal activity (AC50) was less than 100 nM and the IC50 is less than 100 nM. This compound displayed a concentration for 50% growth inhibition (GI50) in assay [2] of 100 to 1000 nM. Further, in assay [3], the IC50 lay within 100 to 1000 nM.
For the compound `Cc1cn2cc(NC(=O)c3ccc(N4C5CNCC54)c4cn(C)nc34)cc(F)c2n1` (stereo not drawn) [Compound 564, 4-{3,6-diazabicyclo[3.1.0]hexan-6-yl}-N-{8-fluoro-2-methylimidazo[1,2-a]pyridin-6-yl}-2-methylindazole-7-carboxamide], the AC50 in assay [1] was less than 100 nM. Also, the IC50 in assay [1] is less than 100 nM; in assay [3], 100 to 1000 nM. This compound also registered a GI50 in assay [2] of 100 to 1000 nM.
For the compound `CCn1cc2c(N3CCNCC3)ccc(C(=O)Nc3cc(F)c4nc(C)c(F)n4c3)c2n1` [Compound 565, N-{3,8-difluoro-2-methylimidazo[1,2-a]pyridin-6-yl}-2-ethyl-4-(piperazin-1-yl) indazole-7-carboxamide; trifluoroacetic acid], in assay [1] (24 h), the concentration at half-maximal activity (AC50) was greater than 10000 nM and the concentration for half-maximal inhibition (IC50) was greater than 10000 nM. Further, in assay [2], the GI50 was 1000 to 10000 nM. Further, the concentration for half-maximal inhibition (IC50) in assay [3] lay within 1000 to 10000 nM.
Consider `CCn1cc2c(N3CCNCC3)ccc(C(=O)Nc3cn4cc(C)nc4c(Oc4ccccc4)n3)c2n1` [Compound 566, 2-ethyl-N-{2-methyl-8-phenoxyimidazo[1,2-a]pyrazin-6-yl}-4-(piperazin-1-yl) indazole-7-carboxamide], for which, in assay [1] (24 h), the AC50 lay in the range of 100 to 1000 nM and the half-inhibitory concentration (IC50) fell in the range of 100 to 1000 nM. In assay [2], this compound registered a concentration for 50% growth inhibition (GI50) of 100 to 1000 nM. Moreover, in assay [3], the half-maximal inhibitory concentration (IC50) lay in the range of 1000 to 10000 nM.
Take `Cc1cn2cc(NC(=O)c3ccc(N4CC[C@@H](NC56CC(C5)C6)C4)c4cn(C)nc34)cc(F)c2n1` [Compound 568, 4-[(3R)-3-{bicyclo[1.1.1]pentan-1-ylamino}pyrrolidin-1-yl]-N-{8-fluoro-2-methylimidazo[1,2-a]pyridin-6-yl}-2-methylindazole-7-carboxamide]: in assay [1] (24 h), the AC50 was 1000 to 10000 nM and the IC50 lay in the range of 1000 to 10000 nM. Further, the GI50 in assay [2] fell in the range of 100 to 1000 nM. Further, the concentration for half-maximal inhibition (IC50) in assay [3] lay within 1000 to 10000 nM.
Turning to `CCn1cc2c(N3CCC(NC4CC4)C3)cc(F)c(C(=O)Nc3cc(F)c4nc(C)cn4c3)c2n1` (stereo not drawn) [Compound 569, 4-[3-(cyclopropylamino)pyrrolidin-1-yl]-2-ethyl-6-fluoro-N-{8-fluoro-2-methylimidazo[1,2-a]pyridin-6-yl}indazole-7-carboxamide], in assay [1] (24 h), the AC50 was less than 100 nM and the half-maximal inhibitory concentration (IC50) is less than 100 nM. In assay [2], this compound had a GI50 of 100 to 1000 nM. The compound further yielded a 50% inhibitory concentration (IC50) in assay [3] of 1000 to 10000 nM.
For the compound `Cc1cn2cc(NC(=O)c3c(F)cc(N4CC[C@@H](NC5CC5)C4)c4cn(C)nc34)cc(F)c2n1` [Compound 571, 4-[(3R)-3-(cyclopropylamino)pyrrolidin-1-yl]-6-fluoro-N-{8-fluoro-2-methylimidazo[1,2-a]pyridin-6-yl}-2-methylindazole-7-carboxamide], in assay [1] (24 h), the AC50 is less than 100 nM and the IC50 is less than 100 nM. Moreover, the GI50 in assay [2] fell in the range of 100 to 1000 nM. Also, the half-inhibitory concentration (IC50) in assay [3] is 100 to 1000 nM.
